Test results published in ChEMBL document CHEMBL4261613, “Discovery of a potent orally bioavailable retinoic acid receptor-related orphan receptor-gamma-t (RORγt) inhibitor, S18-000003” (Bioorg Med Chem Lett, 2018).

Experiments:
Mus musculus [1] = assay: In-vivo transrepression of RORgammat in po dosed mouse assessed as inhibition of IL23-stimulated IL17 production administered 30 mins before and 6 hrs after IL-23 injection in skin intradermally measured after 24 hrs by ELISA; assay type: functional, organism-based
[2] = Cmax in mouse at 30 mg/kg, po; assay type: ADME, organism-based; set-up: dose 30 mg/kg, route oral; conditions: in vivo
[3] = molecular target: T1, Nuclear receptor ROR-beta (Homo sapiens, UniProt Q92753); assay: Transrepression of recombinant human GAL4-DBD fused RORbeta LBD expressed in HEK293 cells after 20 hrs by luciferase reporter gene assay; assay type: cell-based
T1 sequence (Q92753 whole entry): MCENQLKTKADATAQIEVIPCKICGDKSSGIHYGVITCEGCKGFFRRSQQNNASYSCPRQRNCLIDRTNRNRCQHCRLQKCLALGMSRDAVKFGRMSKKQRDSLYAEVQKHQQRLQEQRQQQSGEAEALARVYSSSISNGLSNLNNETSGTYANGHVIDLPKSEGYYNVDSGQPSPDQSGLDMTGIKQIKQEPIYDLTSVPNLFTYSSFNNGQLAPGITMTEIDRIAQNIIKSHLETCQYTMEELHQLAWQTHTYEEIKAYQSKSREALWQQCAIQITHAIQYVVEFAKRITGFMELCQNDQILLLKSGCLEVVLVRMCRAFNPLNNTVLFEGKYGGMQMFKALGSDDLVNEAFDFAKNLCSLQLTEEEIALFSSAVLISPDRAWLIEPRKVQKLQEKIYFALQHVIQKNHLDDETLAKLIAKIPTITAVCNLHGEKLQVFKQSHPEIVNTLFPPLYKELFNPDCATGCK

[4] = Cmax in mouse at 100 mg/kg, po; assay type: ADME, organism-based; set-up: dose 100 mg/kg, route oral; conditions: in vivo
[5] = molecular target: T2, Nuclear receptor ROR-gamma (Homo sapiens, UniProt P51449); assay: Displacement of [3H]-Digoxin from recombinant human GST-fused RORgammat LBD after 1 to 4 hrs by scintillation counting method
T2 sequence (P51449 whole entry): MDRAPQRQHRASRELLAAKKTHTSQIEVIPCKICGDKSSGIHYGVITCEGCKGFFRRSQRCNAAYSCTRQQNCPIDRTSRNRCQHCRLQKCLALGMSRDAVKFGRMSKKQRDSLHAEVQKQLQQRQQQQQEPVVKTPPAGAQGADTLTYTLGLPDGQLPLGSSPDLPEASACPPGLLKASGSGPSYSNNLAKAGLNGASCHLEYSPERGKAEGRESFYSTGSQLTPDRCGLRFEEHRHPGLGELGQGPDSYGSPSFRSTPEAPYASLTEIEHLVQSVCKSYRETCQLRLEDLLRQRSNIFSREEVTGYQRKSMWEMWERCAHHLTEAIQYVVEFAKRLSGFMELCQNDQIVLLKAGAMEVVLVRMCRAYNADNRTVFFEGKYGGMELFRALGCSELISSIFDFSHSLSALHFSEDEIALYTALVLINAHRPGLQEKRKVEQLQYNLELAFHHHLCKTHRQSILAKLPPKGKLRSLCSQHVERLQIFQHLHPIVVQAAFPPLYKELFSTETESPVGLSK

[6] = Tmax in mouse at 30 mg/kg, po; assay type: ADME, organism-based; conditions: in vivo
[7] = Tmax in mouse at 100 mg/kg, po; assay type: ADME, organism-based; conditions: in vivo
[8] = molecular target: T3, Nuclear receptor ROR-alpha (Homo sapiens, UniProt P35398); assay: Displacement of [3H]T0901317 from recombinant human GST-fused RORalpha LBD after 1 to 4 hrs by microbeta scintillation counting method
T3 sequence (P35398 whole entry): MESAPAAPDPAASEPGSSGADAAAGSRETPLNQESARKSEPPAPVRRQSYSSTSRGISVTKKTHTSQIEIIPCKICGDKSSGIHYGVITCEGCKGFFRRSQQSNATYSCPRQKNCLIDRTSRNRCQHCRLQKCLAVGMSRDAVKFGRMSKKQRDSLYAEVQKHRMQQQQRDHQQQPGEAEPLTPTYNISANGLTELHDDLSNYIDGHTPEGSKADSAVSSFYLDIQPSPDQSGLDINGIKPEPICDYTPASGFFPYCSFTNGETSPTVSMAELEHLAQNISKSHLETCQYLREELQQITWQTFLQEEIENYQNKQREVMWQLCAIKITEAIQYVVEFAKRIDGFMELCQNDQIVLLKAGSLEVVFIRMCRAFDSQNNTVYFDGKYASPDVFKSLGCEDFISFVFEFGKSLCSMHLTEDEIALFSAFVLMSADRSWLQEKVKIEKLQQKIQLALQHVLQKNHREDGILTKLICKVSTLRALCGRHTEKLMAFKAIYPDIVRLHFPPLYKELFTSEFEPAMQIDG

[9] = Tmax in rat at 1 mg/kg, po; assay type: ADME, organism-based; conditions: in vivo
Mus musculus [10] = assay: In-vivo transrepression of RORgammat in mouse assessed as inhibition of IL23-stimulated IL17 production at 100 mg/kg, po administered 30 mins before and 6 hrs after IL-23 injection in skin intradermally measured after 24 hrs by ELISA relative to control; assay type: functional
[11] = AUC in mouse at 30 mg/kg, po; assay type: ADME, organism-based; conditions: in vivo
Mus musculus [12] = assay: In-vivo transrepression of RORgammat in mouse assessed as inhibition of IL23-stimulated IL17 production at 30 mg/kg, po administered 30 mins before and 6 hrs after IL-23 injection in skin intradermally measured after 24 hrs by ELISA relative to control; assay type: functional
[13] = AUC in mouse at 100 mg/kg, po; assay type: ADME, organism-based; conditions: in vivo

Row | SMILES | inhibition (Mus musculus [1]) | Cmax [2] [ng/mL] | IC50 [3] [µM] | Cmax [4] [ng/mL] | IC50 [5] [µM] | Tmax [6] [h] | Tmax [7] [h] | IC50 [8] [µM] | Tmax [9] [h] | inhibition in vivo at 100 mg/kg (Mus musculus [10]) [%] | AUC [11] [ng·h/mL] | inhibition in vivo at 30 mg/kg (Mus musculus [12]) [%] | AUC [13] [ng·h/mL]
1 | CCS(=O)(=O)c1ccc(CC(=O)Nc2ccc(C(C)(C)C(=O)Nc3cc(C#N)ccn3)c(F)c2)cc1 | Dose-dependent effect | 2700 | > 10 | 8450 | < 0.03 | 0.5 | 0.5 | > 10 | 1 | 38 | 4740 | 22 | 23000
2 | CCS(=O)(=O)c1ccc(CC(=O)Nc2ccc(C(C)(C)C(=O)Nc3ccc(F)cc3F)c(F)c2)cc1 | Dose-dependent effect | 8350 | > 10 | 17800 | < 0.03 | 1.5 | 0.8 | > 10 | 4 | 63 | 43500 | 41 | 96300
3 | CCS(=O)(=O)c1ccc(CC(=O)Nc2ccc(C(C)(C)C(=O)Nc3ccc(F)cc3)c(F)c2)cc1 | – | – | > 10 | – | < 0.03 | – | – | > 10 | 2.5 | – | – | – | –
